Tested on: BxPC3 cells
Test: Secondary ADC cell killing assay (antibody + anti-human Fc nanobody conjugated to SC236) on BxPC3
Assay type: cell-based
Conditions: Table 15, scFv-Fc from SRP2842; nanobody-SC236 20 nM, 120 hrs
Protocol: The internalization ability of the lead antibodies was evaluated by an ADC cell killing assay on Tissue Factor positive BxPC3 cells. A total of 625 cells in a volume of 25 μL were seeded in each well of a 384-well flat bottom white polystyrene plate. Lead antibodies were formulated at 4-fold starting concentration in the cell culture medium and filtered through MultiScreenHTS 96-Well Filter Plates (Millipore; Billerica, Massachusetts). 12.5 μL of antibody was added into each treatment well, and 12.5 μL of anti-human Fc nanobody conjugated to SC236 was then added into each well at a fixed final concentration of 20 nM. Assay plates were cultured at 37° C. in a CO2 incubator for 120 hrs before assay. For cell viability measurement, 30 μL of Cell Titer-Glo® reagent (Promega Corp. Madison, WI) was added into each well, and plates were processed as per product instructions. Relative luminescence was measured on an ENVISION® plate reader (Perkin-Elmer; Waltham, MA). Relative luminescence readings were converted to percent viability using untreated cells as controls. Data was fitted with non-linear regression analysis, using a log (inhibitor) vs. response-variable slope, 4 parameter fit with GraphPad Prism (GraphPad v 5.0, Software; San Diego, California).

Substance: Tisotumab
- BxPC3 Cell Killing Span (%): 94.7%
- EC50: 0.023 nM

— US12540197B2, “Anti-tissue factor antibodies and antibody conjugates, compositions comprising anti-tissue factor antibodies or antibody conjugates, and methods of making and using anti-tissue factor antibodies and antibody conjugates” (SUTRO BIOPHARMA, INC., priority 2023, dated 2026)
